Values of other authors, collected in patent US6211219A, “Aminocyclohexane derivatives as 5-HT receptor agonists” (Merck Sharp & Dohme Ltd., priority 1996, dated 2001).

Tests used:
[1] = test system: humans; conditions: therapeutic doses
[2] = test system: human 5-HT1Dα and 5-HT1Dβ receptor subtypes; conditions: cf. WO-A-91/17174, Table 1

## CNS(=O)(=O)Cc1ccc2[nH]cc(CCN(C)C)c2c1 [sumatriptan]
[1]
  adverse cardiovascular events on administration to humans: certain adverse cardiovascular events
[2]
  discrimination between the human 5-HT1Dα and 5-HT1Dβ receptor subtypes: barely discriminates
